Source: PMC5000470, “Optimization of extraction parameters of PTP1β (protein tyrosine phosphatase 1β), inhibitory polyphenols, and anthocyanins from Zea mays L. using response surface methodology (RSM)” (BMC Complementary and Alternative Medicine, 2016)
Like-named read-outs stand apart in the source and are kept apart here.

Assays:
[1] = target: T1, PTP1β (human, recombinant) (Homo sapiens, UniProt P18031); experiment: PTP1β inhibitory activity assay (pNPP substrate); format: biochemical; conditions: for inhibition at 10 µg/mL: concentration 10 μg/mL; for inhibition at 50 µg/mL: concentration 50 μg/mL; for inhibition at 25 µg/mL: concentration 25 μg/mL
T1 construct: purchased BIOMOL International LP (Plymouth Meeting, PA)
T1 sequence (P18031 1-435): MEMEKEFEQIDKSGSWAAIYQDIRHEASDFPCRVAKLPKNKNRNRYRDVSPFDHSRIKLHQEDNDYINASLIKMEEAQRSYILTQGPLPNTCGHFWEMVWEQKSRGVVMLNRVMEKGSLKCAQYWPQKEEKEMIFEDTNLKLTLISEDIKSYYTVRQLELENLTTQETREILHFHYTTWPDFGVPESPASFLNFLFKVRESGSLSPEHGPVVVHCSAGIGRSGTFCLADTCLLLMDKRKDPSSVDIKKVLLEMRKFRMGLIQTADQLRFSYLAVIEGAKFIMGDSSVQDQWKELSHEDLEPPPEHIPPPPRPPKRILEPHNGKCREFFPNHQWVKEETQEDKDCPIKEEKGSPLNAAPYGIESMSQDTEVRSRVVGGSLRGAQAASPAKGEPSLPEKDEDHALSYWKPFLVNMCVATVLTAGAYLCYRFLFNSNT
Procedure: A PTP1β (human, recombinant) drug discovery kit was purchased from BIOMOL® International LP (Plymouth meeting, PA). Enzymatic activity was measured using pNPP, as described previously. To each of the 96-wells in a microtiter plate (final volume: 100 μL) was added 2 mM pNPP and PTP1β (0.05-0.1 ng/well) in a buffer containing 50 mM citrate (pH 6.0), 0.1 M sodium chloride, 1 mM EDTA, and 1 mM dithiothreitol, with or without test compounds. Following incubation at 37 °C for 30 min, the reaction was terminated with 10 M sodium hydroxide.
All calculations and analyses were performed using statistical analysis system (SAS, SAS Institude Inc., NC, USA, version 9.1) software and Sigma plot (Systat Software Inc., USA, version 11). Inhibition rates were calculated as percentages (%) with respect to the control value and IC50 value was estimated from the least-squares regression line of the logarithmic concentration plotted against inhibitory activity.

[2] = target: T1, PTP1β (human, recombinant); experiment: Kinetics of PTP1β inhibition (Lineweaver-Burk plots, pNPP substrate); format: biochemical; set-up: dose or concentration left out as unconfirmed
Procedure: […] The initial rate was determined on the basis of the rate of increase in absorbance at 405 nm. The Michaelis-Menten constant (Km) and maximal velocity (Vmax) of PTP1β were determined by Lineweaver-Burk Plot analysis for competitive inhibition, and the intercept on the vertical axis for noncompetitive inhibition.
A kinetic analysis of PTP1β inhibition by compounds 7 and 11 using Lineweaver-Burk plots of 1/velocity and 1/concentration of substrate is shown in Fig. 2. […] However, compound 7 yielded a noncompetitive inhibition pattern against PTP1β. […] These compounds may be potential lead compounds for further development as a functional food source for the prevention of diabetes.

[3] = tested on: rat lenses aldose reductase; set-up: method as in PMID 23586057; conditions: cited from earlier work
[4] = tested on: human recombinant aldose reductase; set-up: method as in PMID 23586057; conditions: cited from earlier work
[5] = Table 2, concentration 100 μg/mL, read-out: Inhibition (%)
[6] = Table 2, isolated compounds, mean of 3 duplication analyses, read-out: IC50 (μg/ml) (converted)
[7] = isolated compounds, read-out: IC50

| SMILES | inhibition at 100 µg/mL [1, 5] | IC50 [1, 6] | inhibition at 10 µg/mL ([1]; Table 2) | inhibition at 50 µg/mL ([1]; Table 2) | IC50 [1, 7] | also measured |
| --- | --- | --- | --- | --- | --- | --- |
| O=C(O)c1ccc(O)c(O)c1 [compound 1, protocatechuic acid] | – | – | – | – | – | inhibition at 100 µg/mL [1]: < 50% |
| O=C(O)c1c(O)cc(O)cc1O [compound 3, 2,4,6-trihydroxy benzoic acid] | < 50% | – | – | – | – | – |
| OC[C@H]1O[C@@H](Oc2cc3c(O)cc(O)cc3[o+]c2-c2ccc(O)cc2)[C@H](O)[C@@H](O)[C@@H]1O [compound 9, pelargonidin-3-glucoside] | 55% | 211 µM | 1.09% | 13.3% | 211 µM | – |
| COc1cc(-c2[o+]c3cc(O)cc(O)c3cc2O[C@@H]2O[C@H](CO)[C@@H](O)[C@H](O)[C@H]2O)ccc1O [compound 10, peonidin-3-glucoside] | < 50% | – | – | – | – | – |
| OC[C@H]1O[C@@H](Oc2cc3c(O)cc(O)cc3[o+]c2-c2ccc(O)c(O)c2)[C@H](O)[C@@H](O)[C@@H]1O [compound 8, cyanidin-3-glucoside] | < 50% | – | – | – | – | – |
| O=C(O)/C=C/c1ccc(O)cc1 [compound 4, p-4-hydroxycinnamic acid] | < 50% | – | – | – | – | – |
| O=C(O)CC(=O)OC[C@H]1O[C@@H](Oc2cc3c(O)cc(O)cc3[o+]c2-c2ccc(O)c(O)c2)[C@H](O)[C@@H](O)[C@@H]1O [compound 11, cyanidin-3-(6”-malonylglucoside)] | – | 54.1 µM | 18.5% | 91.7% | 54.1 µM | inhibition at 25 µg/mL ([1]; Table 2): 36.2%; type of inhibition of PTP1β [2]: mixed; inhibitory activity on rat lenses aldose reductase [3]: significant inhibitory activities; inhibitory activity on human recombinant aldose reductase [4]: significant inhibitory activities |
| COc1cc(/C=C/C(=O)O)ccc1O [compound 5, ferulic acid] | 96.1% | 185 µM | 28.3% | 64.5% | 185 µM | – |
| O=c1c(O[C@@H]2O[C@H](CO)[C@@H](O)[C@H](O)[C@H]2O)c(-c2ccc(O)c(O)c2)oc2cc(O)cc(O)c12 [compound 6, hirsutrin] | < 50% | – | – | – | – | inhibitory activity on rat lenses aldose reductase [3]: significant inhibitory activities; inhibitory activity on human recombinant aldose reductase [4]: significant inhibitory activities |
| COc1cc(-c2oc3cc(O)cc(O)c3c(=O)c2O[C@@H]2O[C@H](CO)[C@@H](O)[C@H](O)[C@H]2O)ccc1O [compound 7, 3′-methoxyhirsutrin] | – | 64 µM | 15% | 85.9% | 64 µM | inhibition at 25 µg/mL ([1]; Table 2): 36.8%; type of inhibition of PTP1β [2]: noncompetitive; inhibitory activity on rat lenses aldose reductase [3]: significant inhibitory activities; inhibitory activity on human recombinant aldose reductase [4]: significant inhibitory activities |
| Cc1ccc(C(=O)Nc2ccc(S(=O)(=O)O)c3cc(S(=O)(=O)O)cc(S(=O)(=O)O)c23)cc1NC(=O)c1cccc(NC(=O)Nc2cccc(C(=O)Nc3cc(C(=O)Nc4ccc(S(=O)(=O)O)c5cc(S(=O)(=O)O)cc(S(=O)(=O)O)c45)ccc3C)c2)c1 [Suramin, suramin, reference compound] | – | – | – | – | – | inhibition at 3.21 µg/mL ([1]; Table 1, concentration 3.21 μg/mL): 10.7%; inhibition at 6.49 µg/mL ([1]; Table 1, concentration 6.49 μg/mL): 40.6%; inhibition at 12.97 µg/mL ([1]; Table 1, concentration 12.97 μg/mL): 61.9%; inhibition at 1 µg/mL ([1]; Table 2, concentration 1 μg/mL): 10.7%; inhibition at 2.5 µg/mL ([1]; Table 2, concentration 2.5 μg/mL): 46.5%; inhibition at 5 µg/mL ([1]; Table 2, concentration 5 μg/mL): 64.3% |
| COc1cc(C(=O)O)ccc1O [compound 2, vanillic acid] | < 50% | – | – | – | – | – |
